Values joined by “and” are separate entries in the source; they are usually repeats but may differ in a detail not shown here. Equal entries are not always repeated. Where two headings read alike, the source gives them in different places.
What was measured:
[1] = Inhibition of COM crystal growth in three growth directions, inhibitors alone and in combination pairs; conditions: for concentration of the single inhibitor achieving 10% inhibition of crystal growth / concentration of the single inhibitor achieving 30% inhibition of crystal growth / concentration of the single inhibitor achieving 70% inhibition of crystal growth / IC50: inhibitor alone; for IC50: read-out: concentration of the single inhibitor achieving 50% inhibition of crystal growth
Method: Different concentrations of citric acid (CA) and ellagic acid (EA) were added to 25 ml of deionized water, the supersaturation of the solution was controlled at S=2.4, and the growth process of the crystal was monitored.
The hollow symbols in the figure represent the concentration required for a single inhibitor to achieve a certain effect, and the same solid symbols represent the concentration required for a combination of the inhibitors to achieve the same effect.
Different concentrations of citric acid (CA) and gallic acid (GaA) were added to 25 ml of deionized water, and the growth process of the crystal was monitored.
Different concentrations of citric acid (CA) and pyrogallol (PGA) were added to 25 ml of deionized water, and the growth process of the crystal was monitored.
Different concentrations of citric acid (CA) and protocatechuic acid (PrA) were added to 25 ml of deionized water, and the growth process of the crystal was monitored.
Comparative Example 1 differed from Example 1 merely in that ellagic acid was replaced with albumin, and the other preparation methods were the same as those in Example 1.
Comparative Example 2 differed from Example 1 merely in that ellagic acid was replaced with o-hydroxybenzoic acid, and the other preparation methods were the same as those in Example 1.
Different concentrations of hydroxycitric acid (HCA) and ellagic acid (EA) were added to 25 ml of deionized water, supersaturation of the solution was controlled at S=2.4, and the growth process of the crystal was monitored.
Different concentrations of hydroxycitric acid (HCA) and gallic acid (GaA) were added to 25 ml of deionized water, and the growth process of the crystal was monitored.
Different concentrations of potassium citrate (KCA) and ellagic acid (EA) were added to 25 ml of deionized water, the supersaturation of the solution was controlled at S=2.4, and the growth process of the crystal was monitored.
Different concentrations of potassium citrate (KCA) and gallic acid (GaA) were added to 25 ml of deionized water, and the growth process of the crystal was monitored.

[2] = tested on: human proximal tubule cells (HK-2); test: Cell death/survival of HK-2 cells exposed to COM crystals; assay type: cell-based; conditions: for synergistic enhancement order in improving cell activity: polyphenol (20 μM GaA, 20 μM EA, 40 μM PGA, 200 μM PrA) combined with citric acid 200 μM
Method: Studies have shown that reducing calcium oxalate crystallization, crystal-cell interactions, and cellular damage can prevent stone formation to some extent. On this basis, the present example further verified the combined effect of the pharmaceutical composition of citric acid (200 μM) and polyphenol molecules (20 μM GaA, 20 μM EA, 40 μM PGA, 200 µM PrA) in reducing cellular damage and crystal adhesion.
In order to explore the combined effects of the pharmaceutical composition on reducing crystal toxicity to cells, an in vitro model of direct exposure to COM crystals was selected in the present example to detect short-term cellular damage. In a culture medium environment with or without inhibitors, mature human proximal tubule cells (HK-2) were exposed to COM crystal suspension medium for the indicated times. […] However, in the presence of CA, the amount of cell death was reduced by 50% (FIG. 6).

[3] = tested on: human proximal tubule cells (HK-2); test: Lactate dehydrogenase (LDH) release from HK-2 cells exposed to COM crystals; assay type: cell-based; conditions: 200 μM CA, 20 μM GaA
Source text: (§1) Studies have shown that reducing calcium oxalate crystallization, crystal-cell interactions, and cellular damage can prevent stone formation to some extent.
Lactate dehydrogenase (LDH) is a cytoplasmic enzyme released into the extracellular space when the cell membrane ruptures, so the amount of LDH released can be used as a sign of cell membrane integrity.

[4] = tested on: HK-2 cells; test: Adhesion of COM crystals to HK-2 cells in vitro; assay type: cell-based; conditions: Homo sapiens, 200 μM CA alone, compared with the blank group without inhibitor, read-out: inhibitory effect on COM crystal adhesion
Source text: as §1

[5] = related studies; cited from earlier work

Structure (SMILES) | concentration of the single inhibitor achieving 10% inhibition of crystal growth ([1]; [001] direction) | concentration of the single inhibitor achieving 30% inhibition of crystal growth ([1]; [001] direction) | concentration of the single inhibitor achieving 70% inhibition of crystal growth ([1]; [001] direction) | IC50 ([1]; [001] direction) | concentration of the single inhibitor achieving 10% inhibition of crystal growth ([1]; [021] direction) | concentration of the single inhibitor achieving 30% inhibition of crystal growth ([1]; [021] direction) | concentration of the single inhibitor achieving 70% inhibition of crystal growth ([1]; [021] direction) | IC50 ([1]; [021] direction) | concentration of the single inhibitor achieving 10% inhibition of crystal growth ([1]; [121] direction) | concentration of the single inhibitor achieving 30% inhibition of crystal growth ([1]; [121] direction) | concentration of the single inhibitor achieving 70% inhibition of crystal growth ([1]; [121] direction) | IC50 ([1]; [121] direction) | reduction of the amount of cell death ([2]; HK-2 cells exposed to COM crystals 24 hours, CA 200 μM) | LDH release compared with the control group [3] | inhibition at 200 µM [4] | inhibitory effect on calcium oxalate crystallization [5] | synergistic enhancement order in improving cell activity [2] | effect compared with citric acid ([1]; inhibition of COM crystal growth)
O=C(O)CC(O)(CC(=O)O)C(=O)O [CA, citric acid] | 0.0108 mM | 0.0369 mM | 0.1254 mM | 71 µM | 0.0121 mM | 0.0409 mM | 0.1380 mM | 79.5 µM | 0.0135 mM | 0.0458 mM | 0.1550 mM | 89 µM | 50% | 195.17% | 30% | 60% | – | –
O=c1oc2c(O)c(O)cc3c(=O)oc4c(O)c(O)cc1c4c23 [EA, ellagic acid] | 8.4e-06 mM and 1.04e-05 mM and 1.05e-05 mM | 3.86e-05 mM and 3.09e-05 mM and 3.85e-05 mM | 0.0001322 mM and 0.0001041 mM and 0.0001312 mM | 0.0761 µM and 0.0609 µM and 0.0763 µM | 1.17e-05 mM and 9.4e-06 mM and 1.16e-05 mM | 3.98e-05 mM and 3.2e-05 mM and 3.99e-05 mM | 0.0001369 mM and 0.0001095 mM and 0.0001358 mM | 0.0772 µM and 0.056 µM and 0.0771 µM | 1.64e-05 mM and 1.31e-05 mM and 1.65e-05 mM | 5.62e-05 mM and 4.49e-05 mM and 5.61e-05 mM | 0.0001884 mM and 0.00015 mM and 0.0001879 mM | 0.11 µM and 0.0888 µM | – | – | – | – | GaA>PcA>PGA>EA | –
O=C(O)c1cc(O)c(O)c(O)c1 [GaA, gallic acid] | 0.0003716 mM and 0.0004677 mM and 0.0004678 mM | 0.0015906 mM and 0.0012801 mM and 0.00159 mM | 0.0053799 mM and 0.0043049 mM and 0.0053797 mM | 3.1 µM and 2.4 µM | 0.0003743 mM and 0.0002994 mM and 0.0003744 mM | 0.0012912 mM and 0.0010221 mM and 0.001291 mM | 0.0043601 mM and 0.003488 mM and 0.00436 mM | 2.51 µM and 1.8 µM | 0.0004959 mM and 0.0003967 mM | 0.0016841 mM and 0.0013473 mM and 0.0016842 mM | 0.0056887 mM and 0.004551 mM and 0.0056881 mM | 3.27 µM and 2.62 µM | – | – | – | – | GaA>PcA>PGA>EA | –
O=C(O)CC(O)(C(=O)O)C(O)C(=O)O (stereo not drawn) [HCA, hydroxycitric acid] | 0.0088 mM | 0.0281 mM | 0.1003 mM | 56.1 µM | 0.0096 mM | 0.0320 mM | 0.1104 mM | 61 µM | 0.0110 mM | 0.0367 mM | 0.1240 mM | 72 µM | – | – | – | – | – | –
O=C([O-])CC(O)(CC(=O)[O-])C(=O)[O-].[K+].[K+].[K+] [KCA, potassium citrate] | 0.0106 mM | 0.0369 mM | 0.1253 mM | 70.9 µM | 0.0123 mM | 0.0401 mM | 0.1369 mM | 79.4 µM | 0.0135 mM | 0.0451 mM | 0.1547 mM | 88.1 µM | – | – | – | – | – | almost the same
Oc1cccc(O)c1O [PGA, pyrogallol] | 0.0021 mM | 0.0073 mM | 0.0245 mM | 14.2 µM | 0.0018 mM | 0.0062 mM | 0.0210 mM | 12.1 µM | 0.0027 mM | 0.0091 mM | 0.0309 mM | 17.7 µM | – | – | – | – | GaA>PcA>PGA>EA | –
O=C(O)c1ccc(O)c(O)c1 [PrA, protocatechuic acid] | 0.0255 mM | 0.0982 mM | – | 264 µM | 0.0187 mM | 0.0702 mM | – | 186 µM | 0.0307 mM | 0.1174 mM | – | 316 µM | – | – | – | – | GaA>PcA>PGA>EA | –

From US20260053773A1, “PHARMACEUTICAL COMPOSITION AND USE THEREOF” (AUHUI TONGOO PHARMACEUTICAL TECHNOLOGY CO., LTD., priority 2022, published 2026)
